Experimental data: USRE39420E1, “1,2-Diphenylpyrrole derivatives, their preparation and their therapeutic uses” (Sankyo Company, Limited, priority 1996, dated 2006)

Legend:
yeast-induced fever = assay: Antipyretic effect on yeast-induced fever; assay type: in vivo, Wistar-Imamichi rats; conditions: Dose: 0.4 mg/kg, oral; mean of 1 and 2 hours after dosing
Protocol: The method of Roszkowski et al. [J. Pharmacol. Exp. Ther. 179, 114, (1971)] was slightly modified to perform the test. The test compound was administered in the same manner as in Experiment 3. Male Wistar-Imamichi rats (6 week old, body weights: approximately 120 g) were used in the test. Yeast (Brewer's yeast, Sigma) was suspended in physiological saline to a concentration of 25%, finely crushed in an agate mortar, and injected subcutaneously into the backs of the rats under ether-anesthesia at a volume of 2 ml/rat. The rats were fasted after the injection of yeast. On the following day (19 hours after the yeast injection), a catheter-type thermistor thermometer (Japan Koden, MGA III) was inserted approximately 5 cm into the rectum to measure the temperature of the animals. […] Rectal temperatures were measured 1 and 2 hours after administration of the test compound, and fever temperature was calculated by subtracting the normal temperature of healthy animals measured simultaneously. Inhibition rate of the group treated with the compound relative to the control group was calculated by using the mean value at 1 and 2 hours after dosing.

[1] = system: yeast-inflamed pain in rats; assay: Analgesic effect on yeast-inflamed pain in rats (Randall-Selitto method); assay type: in vivo, Wistar-Imamichi rats; conditions: Rattus norvegicus, oral, pain threshold 0.5, 1 and 2 hours after administration, read-out: Efficacy Rate (No. of animals in which drug was effective/No. of animals used in test) (converted)
Method in brief: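 Male Wistar-Imamichi rats were fasted 16 h and given compound orally in 0.5% tragacanth. Paw inflammation was induced by subcutaneous 20% brewer's yeast, and pressure pain threshold was measured from 4.5 h at 0.5, 1 and 2 h. An animal counted as responding if its threshold exceeded twice the control mean, and efficacy rate followed Blake's method.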

[2] = system: scald-induced Pain in rats; assay: Scald-induced pain test; assay type: in vivo, Wistar-Imamichi rats; conditions: oral; pain response time, mean of 1 and 2 hours after dosing
Protocol: The test was conducted in accordance with the method of Iizuka and Tanaka [Jpn. J. Pharmacol. 70, 697, (1967)]. The test compound was administered in the same manner as in Experiment 3. Male Wistar-Imamichi rats (4-5 week old, body weights: approximately 100 g) were used after fasting for 16 hours. The right hind foot of the animal was immersed in hot water at 57° C. for 6 seconds to induce scald under ether-anesthesia. Two hours later, the scald foot of the rat was irritated by immersing in hot water at 40° C. for 5 seconds, and the animal was returned to the cage. […] Lifting up the scalded foot or licking it without coming in contact with the metal cage were considered to be pain responses. Pain response time was determined as the total time of the pain response during the 30-second observation period. […] Pain response time was again measured 1 and 2 hours after dosing and the mean value was determined. Using the mean values, inhibition rates were calculated relative to the control group. ID50 was calculated from the regression line determined by the inhibition rates and the doses.

[3] = system: TNFα production in human peripheral monocytes; assay: Inhibitory effect on TNFα production in LPS-stimulated human peripheral monocytes; assay type: cell-based; conditions: Monocyte, LPS 10 μg/ml, 20 hours
Protocol: (§1) (1) Peripheral blood was collected from healthy human volunteers in the presence of heparin. After mixing it with an equal volume of phosphate-buffered saline (PBS, Nissui Pharmaceutical), the mixture was layered onto Ficoll Paque medium (Pharmacia) at the rate of 2:1 and centrifuged at 520×g at 25° C. for 20 minutes. After centrifugation, the monocyte layer was removed and suspended in RPMI 1640 (Nissui Pharmaceutical) containing 10% fetal calf serum (FCS). The monocytes were washed once with the same medium, placed in a plastic Petri dish, pre-treated with human plasma and incubated for 2 hours in the presence of 5% CO2 to cause them to adhere to the dish. After incubation, the Petri dish was washed twice with PBS to remove the non-adherent cells. Thereafter, PBS containing 5% FCS and 0.2% EDTA was added to the Petri dish and the dish was allowed to stand undisturbed for 15 minutes at 4° C. The monocytes were recovered from the dish by pipetting. The cells were finally suspended in RPMI 1640 at a concentration of 1.25×10^5 cells/ml. (2) Culture of Human Monocytes
(§2) A 40 μl solution of the test compound and 40 μl of lipopolysaccharide (LPS; E. coli, 0.26:B6, Difco), adjusted to a final concentration of 10 μg/ml, were added to 320 μl of cell suspension. The resulting mixture was then cultured for 20 hours in the presence of 5% CO2 and the supernatant was removed at the end of cultivation to assay IL-1β and TNFα. The test compound was dissolved in dimethyl sulfoxide and diluted by a factor of 100 with FCS to reach 10 times the final concentration (the final concentrations of dimethyl sulfoxide and FCS were 0.1% and 10%, respectively).
(§3) The amount of IL-1β was measured with a commercially available ELISA kit (Cayman), after diluting the supernatant medium by a factor of 15 or 30 with the ELISA buffer. The amount of TNFα was similarly measured by a ELISA kit (Genzyme) after diluting the supernatant by a factor of 2.
(§4) The IC50 was calculated from the regression line determined by the inhibition rates and the concentrations of the test compound.

[4] = system: IL-1β production in human peripheral monocytes; assay: Inhibitory effect on IL-1β production in LPS-stimulated human peripheral monocytes; assay type: cell-based; conditions: Monocyte, LPS 10 μg/ml, 20 hours
Protocol: as §1, §2, §3, §4

| SMILES | Inhibition Rate (%) (yeast-induced fever) | responders at 12.5 mg/kg [1] [%] | ID50 [2] [mg/kg] | inhibition at 10 µM [3] [%] | inhibition at 10 µM [4] [%] |
| --- | --- | --- | --- | --- | --- |
| COc1ccc(-c2cc(C)cn2-c2ccc(S(N)(=O)=O)cc2)cc1 [Example 52, 2-(4-Methoxyphenyl)-4-methyl-1-(4-sulfamoylphenyl)pyrrole] | 82 | 100 | 1.1 | – | – |
| Cc1ccc(-c2ccccc2)n1-c1ccc(S(N)(=O)=O)cc1 [Compound A, 5-methyl-2-phenyl-1-(4-sulfamoylphenyl)pyrrole, reference compound] | – | – | – | 13.9 | 24.2 |
